ChEMBL document CHEMBL4837225, “Water-soluble derivatives of evodiamine: Discovery of evodiamine-10-phosphate as an orally active antitumor lead compound” (Eur J Med Chem, 2021)
Converted amounts (≈) assume the structure as drawn. The source made the active and inactive calls. The calls are words filed in the database; no cut-off is given here.

Legend:
HCT-116 [1] = experiment: Antiproliferative activity against human HCT-116 cells assessed as inhibition of cell proliferation incubated for 72 hrs by CCK8 assay; assay type: functional, cell-based; details: HCT-116, 72 h
MDA-MB-231 = experiment: Antiproliferative activity against human MDA-MB-231 cells assessed as inhibition of cell proliferation incubated for 72 hrs by CCK8 assay; assay type: functional, cell-based; details: MDA-MB-231, 72 h
A549 = experiment: Antiproliferative activity against human A549 cells assessed as inhibition of cell proliferation incubated for 72 hrs by CCK8 assay; assay type: functional, cell-based; details: A549, 72 h
[2] = Solubility of the compound in double distilled water; assay type: physicochemical
[3] = molecular target: DNA topoisomerase 2-alpha (Homo sapiens) (UniProt P11388); experiment: Inhibition of TOP2 (unknown origin) assessed as formation of short DNA fragments using supercoiled plasmid DNA at 100 uM by ethidium bromide staining based gel
HCT-116 [4] = experiment: Antitumor activity against human HCT-116 cells xenografted in BALB/c nude mouse assessed as inhibition of tumor growth at 16 mg/kg/day, ip BID administered for 21 days measured by caliper; assay type: functional, organism-based; details: time 21.0 day
[5] = molecular target: T1, DNA topoisomerase 1 (Homo sapiens) (UniProt P11387); experiment: Inhibition of TOP1 (unknown origin) assessed as decrease in relaxation of supercoiled DNA using pBR322 plasmid DNA as substrate at 100 uM by ethidium bromide staining based gel electrophoresis
T1 sequence (whole entry): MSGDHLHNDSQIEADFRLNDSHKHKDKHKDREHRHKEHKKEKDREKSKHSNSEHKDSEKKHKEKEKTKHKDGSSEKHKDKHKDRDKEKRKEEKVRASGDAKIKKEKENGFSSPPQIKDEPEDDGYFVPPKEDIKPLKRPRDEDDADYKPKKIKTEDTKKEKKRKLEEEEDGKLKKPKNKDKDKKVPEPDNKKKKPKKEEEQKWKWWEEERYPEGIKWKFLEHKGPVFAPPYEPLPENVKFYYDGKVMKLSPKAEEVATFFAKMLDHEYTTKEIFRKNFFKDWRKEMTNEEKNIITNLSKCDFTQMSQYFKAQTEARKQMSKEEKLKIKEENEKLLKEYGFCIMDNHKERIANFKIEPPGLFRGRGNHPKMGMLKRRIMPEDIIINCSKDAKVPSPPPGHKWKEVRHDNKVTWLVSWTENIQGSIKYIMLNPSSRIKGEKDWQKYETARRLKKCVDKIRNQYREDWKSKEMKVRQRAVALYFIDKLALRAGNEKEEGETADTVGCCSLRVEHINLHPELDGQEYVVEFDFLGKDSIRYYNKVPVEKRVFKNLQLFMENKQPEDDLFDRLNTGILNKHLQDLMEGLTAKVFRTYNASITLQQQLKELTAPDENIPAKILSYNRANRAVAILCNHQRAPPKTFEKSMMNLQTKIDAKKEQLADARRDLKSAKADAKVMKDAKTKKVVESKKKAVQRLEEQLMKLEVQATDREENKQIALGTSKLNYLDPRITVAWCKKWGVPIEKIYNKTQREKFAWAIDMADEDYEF

HCT-116 [6] = experiment: Antitumor activity against human HCT-116 cells xenografted in BALB/c nude mouse assessed as inhibition of tumor growth at 150 mg/kg, po BID measured by caliper relative to control; assay type: functional; details: HCT-116, po, read-out: TGI
[7] = Half life in mouse liver microsomes; assay type: ADME, Microsome
HCT-116 [8] = experiment: Antitumor activity against human HCT-116 cells xenografted in BALB/c nude mouse assessed as inhibition of tumor growth at 60 mg/kg, po BID administered for 21 days measured by caliper relative to control; assay type: functional; details: HCT-116, po, 504 h, time 21 day, read-out: TGI
[9] = Toxicity in BALB/c nude mouse xenografted with human A549 cells assessed as morphological changes in kidney at 150 mg/kg, po bid by H&E staining based light microscopic analysis; assay type: organism-based; details: in vivo
[10] = Toxicity in BALB/c nude mouse xenografted with human A549 cells assessed as morphological changes in liver at 150 mg/kg, po bid by H&E staining based light microscopic analysis; assay type: organism-based; details: in vivo
HCT-116 [11] = experiment: Antitumor activity against human HCT-116 cells xenografted in BALB/c nude mouse assessed as necrosis at 150 mg/kg, po bid by H&E staining based light microscopic analysis; assay type: functional, organism-based
HCT-116 [12] = experiment: Antitumor activity against human HCT-116 cells xenografted in BALB/c nude nude mouse assessed as tumor growth inhibition at 16 mg/kg/day, ip QD administered for 16 consecutive days measured by caliper relative to control; assay type: functional; details: HCT-116, ip, 384 h, time 16 day, read-out: TGI
[13] = Toxicity in BALB/c nude nude mouse xenografted with human HCT-116 cells assessed as decrease in body weight at 0.5 mg/kg/day, ip QD administered for 16 consecutive days; assay type: organism-based; details: in vivo, 384 h, time 16 day
HCT-116 [14] = experiment: Antitumor activity against human HCT-116 cells xenografted in BALB/c nude mouse assessed as inhibition of tumor growth at 16 mg/kg, ip QD administered for 21 days measured by caliper; assay type: functional, organism-based; details: time 21.0 day

Sequence of DNA topoisomerase 2-alpha (Homo sapiens) (P11388 whole entry, the tested form may be a part): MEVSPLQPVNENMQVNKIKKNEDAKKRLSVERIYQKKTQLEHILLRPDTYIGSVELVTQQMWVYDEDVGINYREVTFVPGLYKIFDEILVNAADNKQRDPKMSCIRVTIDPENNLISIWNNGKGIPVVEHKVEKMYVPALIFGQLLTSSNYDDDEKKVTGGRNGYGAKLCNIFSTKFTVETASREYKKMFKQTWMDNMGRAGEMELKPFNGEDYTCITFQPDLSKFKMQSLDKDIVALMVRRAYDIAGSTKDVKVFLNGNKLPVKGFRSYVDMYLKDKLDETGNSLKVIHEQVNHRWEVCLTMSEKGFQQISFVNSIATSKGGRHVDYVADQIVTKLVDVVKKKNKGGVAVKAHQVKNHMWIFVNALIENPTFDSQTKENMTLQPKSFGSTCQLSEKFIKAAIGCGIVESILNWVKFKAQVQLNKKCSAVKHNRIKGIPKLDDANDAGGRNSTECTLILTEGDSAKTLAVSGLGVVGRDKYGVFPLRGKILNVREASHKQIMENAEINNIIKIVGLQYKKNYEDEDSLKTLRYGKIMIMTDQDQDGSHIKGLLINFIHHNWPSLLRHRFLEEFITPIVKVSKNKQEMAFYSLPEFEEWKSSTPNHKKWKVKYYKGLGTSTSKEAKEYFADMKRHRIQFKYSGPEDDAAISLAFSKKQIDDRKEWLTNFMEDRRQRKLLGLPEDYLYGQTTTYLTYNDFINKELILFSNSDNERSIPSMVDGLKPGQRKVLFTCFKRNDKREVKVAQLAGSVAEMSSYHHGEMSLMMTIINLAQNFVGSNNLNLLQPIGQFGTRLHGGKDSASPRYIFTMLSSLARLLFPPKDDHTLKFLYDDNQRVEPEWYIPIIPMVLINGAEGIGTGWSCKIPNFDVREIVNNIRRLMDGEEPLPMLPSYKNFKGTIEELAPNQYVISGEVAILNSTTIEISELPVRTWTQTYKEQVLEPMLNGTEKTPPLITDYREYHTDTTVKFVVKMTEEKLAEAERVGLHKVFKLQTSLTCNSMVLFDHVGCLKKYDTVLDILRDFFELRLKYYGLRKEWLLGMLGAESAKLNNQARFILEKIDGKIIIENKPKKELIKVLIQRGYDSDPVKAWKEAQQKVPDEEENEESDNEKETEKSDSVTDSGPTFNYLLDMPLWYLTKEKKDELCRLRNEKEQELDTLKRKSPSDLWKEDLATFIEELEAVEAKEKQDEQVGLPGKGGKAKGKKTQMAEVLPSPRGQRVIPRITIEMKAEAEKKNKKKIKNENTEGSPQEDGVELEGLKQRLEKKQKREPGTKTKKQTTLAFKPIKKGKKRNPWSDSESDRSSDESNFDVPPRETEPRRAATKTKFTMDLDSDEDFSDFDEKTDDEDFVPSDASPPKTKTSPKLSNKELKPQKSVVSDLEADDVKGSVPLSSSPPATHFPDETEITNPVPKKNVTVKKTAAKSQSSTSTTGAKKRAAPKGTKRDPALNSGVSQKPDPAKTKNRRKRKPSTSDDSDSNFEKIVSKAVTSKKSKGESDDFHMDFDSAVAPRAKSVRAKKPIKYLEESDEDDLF

| IC50 (HCT-116 [1]) | IC50 (MDA-MB-231) | IC50 (A549) | solubility [2] | inhibition [3] | Compound | other results |
| --- | --- | --- | --- | --- | --- | --- |
| 1.6 µM | > 10 µM | > 10 µM | 11 µg/mL (≈ 26.2 µM) | Active | CC(O)C(N)C(=O)Nc1ccc2[nH]c3c(c2c1)CCN1C(=O)c2ccccc2N(C)C31 (centres undefined) |  |
| 1.9 µM | 0.87 µM | 6.3 µM | 20 µg/mL (≈ 49.3 µM) | Active | CN1c2ccccc2C(=O)N2CCc3c([nH]c4ccc(NC(=O)C(N)CO)cc34)C21 (centres undefined) |  |
| 0.46 µM | 0.19 µM | 0.72 µM | 29 µg/mL (≈ 73.1 µM) | Active | CN1c2ccccc2C(=O)N2CCc3c([nH]c4ccc(NS(C)(=O)=O)cc34)C21 (centres undefined) | TGI (HCT-116 [4]): inactive |
| 1.1 µM | 0.84 µM | 5 µM | 23 µg/mL (≈ 57.9 µM) | Active | CN1c2ccccc2C(=O)N2CCc3c([nH]c4ccc(NS(N)(=O)=O)cc34)C21 (centres undefined) |  |
| > 10 µM | > 10 µM | > 10 µM | 14 µg/mL (≈ 32.4 µM) | Active | CC(C)CC(N)C(=O)Nc1ccc2[nH]c3c(c2c1)CCN1C(=O)c2ccccc2N(C)C31 (centres undefined) |  |
| < 0.003 µM | 0.02 µM | > 10 µM | 17 µg/mL (≈ 31.9 µM) | Active | CN1c2ccccc2C(=O)N2CCc3c([nH]c4ccc(OC(=O)CCC(=O)OCCN5CCOCC5)cc34)C21 (centres undefined) |  |
| 0.04 µM | 0.53 µM | 0.41 µM | 37 µg/mL (≈ 92.9 µM) | Active | CN1c2ccccc2C(=O)N2CCc3c([nH]c4ccc(OS(N)(=O)=O)cc34)C21 (centres undefined) |  |
| 1.6 µM | 1.2 µM | 3.7 µM | 19 µg/mL (≈ 50.6 µM) | Active | CN1c2ccccc2C(=O)N2CCc3c([nH]c4ccc(NC(=O)CN)cc34)C21 (centres undefined) |  |
| 0.021 µM | > 10 µM | > 10 µM | 12 µg/mL (≈ 24.2 µM) | Active | CN1c2ccccc2C(=O)N2CCc3c([nH]c4ccc(OC(=O)[C@@H](N)COCc5ccccc5)cc34)C21 (some centres undefined) | inhibition [5]: Active |
| < 0.003 µM | 0.094 µM | 0.28 µM | 11 µg/mL (≈ 34.4 µM) | Active | CN1c2ccccc2C(=O)N2CCc3c([nH]c4ccc(O)cc34)[C@H]21 | inhibition in vivo at 150 mg/kg (HCT-116 [6]): 57%; half-life [7]: 14.3 min; inhibition in vivo at 60 mg/kg (HCT-116 [8]): 24%; Activity [9]: Non-Toxic; Activity [10]: Non-Toxic; Activity (HCT-116 [11]): Active |
| 0.94 µM | 0.52 µM | 4.9 µM | 28 µg/mL (≈ 71.9 µM) | Active | CC(N)C(=O)Nc1ccc2[nH]c3c(c2c1)CCN1C(=O)c2ccccc2N(C)C31 (centres undefined) |  |
| 5.8 µM | > 10 µM | > 10 µM | 14 µg/mL (≈ 31.4 µM) | Active | CN1c2ccccc2C(=O)N2CCc3c([nH]c4ccc(NC(=O)C(N)CCC(N)=O)cc34)C21 (centres undefined) |  |
| > 10 µM | > 10 µM | > 10 µM | 15 µg/mL (≈ 36.1 µM) | Active | CN1c2ccccc2C(=O)N2CCc3c([nH]c4ccc(NC(=O)C5CCCN5)cc34)C21 (centres undefined) |  |
| > 10 µM | > 10 µM | > 10 µM | 11 µg/mL (≈ 25.6 µM) | Active | CN1c2ccccc2C(=O)N2CCc3c([nH]c4ccc(NC(=O)C5CCC(=O)N5)cc34)C21 (centres undefined) |  |
| 1.6 µM | 0.81 µM | > 10 µM | 15 µg/mL (≈ 33.4 µM) | Active | CSCCC(N)C(=O)Nc1ccc2[nH]c3c(c2c1)CCN1C(=O)c2ccccc2N(C)C31 (centres undefined) |  |
| 1.4 µM | 1.8 µM | > 10 µM | 25 µg/mL (≈ 64.2 µM) | Active | CNCC(=O)Nc1ccc2[nH]c3c(c2c1)CCN1C(=O)c2ccccc2N(C)C31 (centres undefined) |  |
| 1.26 µM | 0.55 µM | > 10 µM | 12 µg/mL (≈ 24.9 µM) | Active | CN1c2ccccc2C(=O)N2CCc3c([nH]c4ccc(NC(=O)C(N)Cc5ccc(O)cc5)cc34)C21 (centres undefined) |  |
| < 0.003 µM | 0.049 µM | > 10 µM | 18 µg/mL (≈ 43 µM) | Active | CC(C)[C@H](N)C(=O)Oc1ccc2[nH]c3c(c2c1)CCN1C(=O)c2ccccc2N(C)C31 (some centres undefined) | inhibition [5]: Active |
| 1.4 µM | 0.53 µM | > 10 µM | 16 µg/mL (≈ 38.2 µM) | Active | CN1c2ccccc2C(=O)N2CCc3c([nH]c4ccc(NC(=O)CCC(=O)O)cc34)C21 (centres undefined) |  |
| 1.7 µM | 0.52 µM | > 10 µM | 12 µg/mL (≈ 23.8 µM) | Active | CN1c2ccccc2C(=O)N2CCc3c([nH]c4ccc(NC(=O)C(N)Cc5c[nH]c6ccccc56)cc34)C21 (centres undefined) |  |
| < 0.003 µM | 0.68 µM | 9.22 µM | 18 µg/mL (≈ 33.9 µM) | Active | CN1c2ccccc2C(=O)N2CCc3c([nH]c4ccc(OC(=O)CCC(=O)OCCN5CCCCC5)cc34)C21 (centres undefined) |  |
| < 0.003 µM | 2.34 µM | 2.61 µM | 24 µg/mL (≈ 59 µM) | Active | CN1c2ccccc2C(=O)N2CCc3c([nH]c4ccc(OC(=O)[C@@H](N)CO)cc34)C21 (some centres undefined) | inhibition [5]: Active |
| 4.4 µM | > 10 µM | > 10 µM | 16 µg/mL (≈ 34.4 µM) | Active | CN1c2ccccc2C(=O)N2CCc3c([nH]c4ccc(NC(=O)C(N)Cc5ccccc5)cc34)C21 (centres undefined) |  |
| 0.007 µM | 1.15 µM | 0.43 µM | 30 µg/mL (≈ 72 µM) | Active | CN1c2ccccc2C(=O)N2CCc3c([nH]c4ccc(OC(=O)[C@@H]5CCCN5)cc34)C21 (some centres undefined) | inhibition in vivo at 16 mg/kg/day (HCT-116 [12]): 55%; Activity [13]: Toxic; Activity (HCT-116 [14]): inactive; inhibition in vivo at 150 mg/kg (HCT-116 [6]): 39% |
| 0.39 µM | 1.8 µM | 4.8 µM | 10 µg/mL (≈ 31.4 µM) | Active | CN1c2ccccc2C(=O)N2CCc3c([nH]c4ccc(N)cc34)C21 (centres undefined) | inhibition [5]: inactive; TGI (HCT-116 [4]): inactive |
| < 0.003 µM | 0.26 µM | 5.49 µM | 15 µg/mL (≈ 35.8 µM) | inactive | CN1c2ccccc2C(=O)N2CCc3c([nH]c4ccc(OC(=O)CCC(=O)O)cc34)C21 (centres undefined) |  |

| Compound | IC50 (HCT-116 [1]) | IC50 (MDA-MB-231) | IC50 (A549) | solubility [2] | inhibition [3] | other results |
| --- | --- | --- | --- | --- | --- | --- |
| CC[C@@]1(O)C(=O)OCc2c1cc1n(c2=O)Cc2cc3ccccc3nc2-1 [CAMPTOTHECIN] | 0.017 µM | 0.241 µM | 0.17 µM |  |  |  |
